Legend:
786-O = assay: Cytotoxicity in vitro in the presence and absence of elastase (MTT assay); format: cell-based, human; settings: 786-O cells, 72 h
Protocol: (§1) Cultivation of cells was performed according to standard procedures with the media recommended by the provider. The cells, in a total volume of 100 μL, were seeded in a 96-well plate with a white bottom (#3610). After a 24 h incubation period at 37° C. and 5% CO2, the medium was exchanged by adding 90 μL fresh medium. The treatment started by adding the test compound in 10 μL of culture medium to the cells in triplicates. Concentrations ranging from 10^−5 M to 10^−13 M were chosen. Two identically treated sets of samples were prepared. One set was treated with the test compound alone, whereas to the second set the compound and 10 nM elastase was added followed by a 72 h incubation period at 37° C. and 5% CO2. The proliferation was detected using the MTT assay (ATCC). At the end of the incubation period the MTT reagent was added to all samples for 4h. Lysis of the cells followed by addition of the detergent was done overnight. The formed dye was detected at 570 nm. The proliferation of untreated but otherwise identically handled cells was define as the […].

HT29 = assay: as above; format: cell-based, human; settings: HT29 cells, 72 h
Protocol: as §1

NCI H292 = assay: as above; format: cell-based, human; settings: NCI H292 cells, 72 h
Protocol: as §1

avb3 = assay: EC50 [nM]
From the text: Table printed on a drawing sheet, FIG. 4
Head of the field: EC50 [nM]
The patent's description of the figure: FIG. 4: avb3 binding of selected examples and EC50 values
First copying reader's note: EC50 values relate to the αvβ3 binding assay plotted next to the table; R^2 is the goodness of fit of the curve.
Where the first naming reader finds the target: description_of_the_figure: FIG. 4: avb3 binding of selected examples and EC50 values

SUM149 = assay: Cytotoxicity in vitro in the presence and absence of elastase (MTT assay); format: cell-based; settings: SUM149 cells, 72 h
Protocol: as §1

[1] = Compound stability in buffer; format: physicochemical; settings: for release of free payload in buffer: buffer at pH 4, within 24 hours
Protocol: (§2) Compound B1, Compound C2, and Compound C3 were evaluated for stability in plasma and/or buffer. Compound B1 was stable in rat plasma at 37° C. (FIG. 1 panel (a)) and in buffer at pH 7.4 (FIG. 1 panel (b)) for the duration of the 4-hour assay.
Method for measurement of stability in buffer: 0.15 mg of the test compound are solved in 0.1 ml dimethylsulfoxide and 0.4 ml acetonitrile. For complete dissolution the HPLC vial with the sample solution is shaken and sonicated. Then 1.0 ml of the respective buffer solution is added, and the sample is vortexed. The sample solution is analysed by HPLC to determine the amount of the test compound and up to two byproducts at a particular time over a period of 24 h at 37° C. to values result from a sample immediately taken after vortexing with buffer at RT. The peak areas (in percentage) are used for quantification.

[2] = Compound stability in rat plasma; format: in vitro ADME; settings: rat plasma at 37° C., 4-hour assay; for ester cleavage in rat plasma: detected by LC-MS
Protocol: as §2
Method for measurement of stability in rat and human plasma: 1 mg of the test compound is dissolved in 0.5 ml acetonitrile/dimethylsulfoxide 1:1. For complete dissolution the HPLC vial is shaken and sonicated. While vortexing 20 μl of this solution are added to 1 ml 37° C. warm plasma. After 0.17, 0.5, 1, 1.5, 2 and 4 hours the enzymatic reaction is stopped by adding 100 μl of the compound plasma solution to a vial containing 300 μl acetonitrile/buffer pH3 (80:20) at RT. The mixture is centrifuged at 5000 rpm for 10 minutes. The supernatant is analyzed by HPLC to determine the amount of the test compound and up to two byproducts. To values result from a processed sample immediately taken after vortexing with plasma at RT. The peak areas (in percentage) are used for quantification. All data is given as percent area of the initial compound at to.

SMILES: CCCNC(=O)Nc1cccc(S(=O)(=O)Nc2cccc([C@@H](CC(=O)O)NC(=O)Nc3ccc(NC(=O)NCCC(=O)NCCCC[C@H](NC(=O)CCNC(=O)Nc4ccc(NC(=O)N[C@H](CC(=O)O)c5cccc(NS(=O)(=O)c6cccc(NC(=O)NCCC)c6)c5)cc4)C(=O)NCCOCCOCCOCCC(=O)N[C@@H](CC(=O)O)C(=O)N4CCC[C@H]4C(=O)N[C@H](C(=O)O[C@]4(CC)C(=O)OCc5c4cc4n(c5=O)Cc5c-4nc4ccccc4c5CC)C(C)C)cc3)c2)c1 [Compound A2]
- IC50 (786-O; compound alone (no elastase)): 10 to 100 nM
- IC50 (786-O; with 10 nM elastase): 0.01 to 0.1 nM
- IC50 (HT29; compound alone (no elastase)): > 100 nM
- IC50 (HT29; with 10 nM elastase): 0.01 to 0.1 nM
- IC50 (NCI H292; compound alone (no elastase)): 10 to 100 nM
- IC50 (NCI H292; with 10 nM elastase): 0.01 to 0.1 nM
- EC50 (avb3): 97 nM
- IC50 (SUM149; compound alone (no elastase)): 10 to 100 nM
- IC50 (SUM149; with 10 nM elastase): 0.01 to 0.1 nM

SMILES: CCCNC(=O)Nc1cccc(S(=O)(=O)Nc2cccc(C(CC(=O)O)NC(=O)Nc3ccc(NC(=O)NCCOCCOCCOCCC(=O)NCCCCC(NC(=O)CCOCCOCCOCCNC(=O)Nc4ccc(NC(=O)NC(CC(=O)O)c5cccc(NS(=O)(=O)c6cccc(NC(=O)NCCC)c6)c5)cc4)C(=O)NCCOCCOCCOCCC(=O)NC(CC(=O)O)C(=O)N4CCCC4C(=O)NC(C(=O)OC4(CC)C(=O)OCc5c4cc4n(c5=O)Cc5c-4nc4ccccc4c5CC)C(C)C)cc3)c2)c1 (stereo not shown) [Compound A3]
- EC50 (avb3): 55 nM

SMILES: CCCNC(=O)Nc1cccc(S(=O)(=O)Nc2cccc([C@@H](CC(=O)O)NC(=O)Nc3ccc(NC(=O)N(C)CCN(C)CCN(C)CC(=O)N[C@@H](CC(N)=O)C(=O)N4CCC[C@H]4C(=O)N[C@H](C(=O)O[C@]4(CC)C(=O)OCc5c4cc4n(c5=O)Cc5c-4nc4ccccc4c5CC)C(C)C)cc3)c2)c1 [Compound B1, (4S)-4,11-diethyl-3,14-dioxo-3,4,12,14-tetrahydro-1H-pyrano[3′,4′:6,7]indolizino[1,2-b]quinolin-4-yl N-{2-[{2-[({4-[({(1R)-2-carboxy-1-[3-({3-[(propylcarbamoyl)amino]benzene-1-sulfonyl}amino)phenyl]ethyl}carbamoyl)amino]phenyl}carbamoyl)(methyl)amino]ethyl} (methyl)amino]ethyl}-N-methylglycyl-L-asparaginyl-L-prolyl-L-valinate]
- IC50 (786-O; compound alone (no elastase)): 10 to 100 nM
- IC50 (786-O; with 10 nM elastase): 0.1 to 1 nM
- IC50 (HT29; compound alone (no elastase)): > 100 nM
- IC50 (HT29; with 10 nM elastase): 0.1 to 1 nM
- IC50 (NCI H292; compound alone (no elastase)): 10 to 100 nM
- IC50 (NCI H292; with 10 nM elastase): 0.1 to 1 nM
- stability in buffer at pH 7.4 ([1]; buffer pH 7.4, 4-hour assay): stable
- IC50 (SUM149; compound alone (no elastase)): 10 to 100 nM
- IC50 (SUM149; with 10 nM elastase): 0.01 to 0.1 nM
- stability in rat plasma [2]: stable

SMILES: CCCNC(=O)Nc1cccc(S(=O)(=O)Nc2cccc([C@@H](CC(=O)O)NC(=O)Nc3ccc(NC(=O)NCCOCCOCCOCCC(=O)N[C@@H](CC(=O)OCCCN(C)C)C(=O)N4CCC[C@H]4C(=O)N[C@H](C(=O)O[C@]4(CC)C(=O)OCc5c4cc4n(c5=O)Cc5c-4nc4ccccc4c5CC)C(C)C)cc3)c2)c1 [Compound C2, (3R)-3-[({4-[({(9S)-9-[(2S)-2-{[(2S)-1-{[(4S)-4,11-diethyl-3,14-dioxo-3,4,12,14-tetrahydro-1H-pyrano[3′,4′:6,7]indolizino[1,2-b]quinolin-4-yl]oxy}-3-methyl-1-oxobutan-2-yl]carbamoyl}pyrrolidine-1-carbonyl]-2-methyl-7,11-dioxo-6,14,17,20-tetraoxa-2,10-diazadocosan-22-yl}carbamoyl)amino]phenyl}carbamoyl)amino]-3-[3-({3-[(propylcarbamoyl)amino]benzene-1-sulfonyl}amino)phenyl]propanoic acid]
- IC50 (786-O; compound alone (no elastase)): 10 to 100 nM
- IC50 (786-O; with 10 nM elastase): 0.1 to 1 nM
- IC50 (HT29; compound alone (no elastase)): 1.1 to 10 nM
- IC50 (HT29; with 10 nM elastase): 0.1 to 1 nM
- IC50 (NCI H292; compound alone (no elastase)): 10 to 100 nM
- IC50 (NCI H292; with 10 nM elastase): 0.1 to 1 nM
- release of free payload in buffer [1]: No release of free payload is detected
- IC50 (SUM149; compound alone (no elastase)): 0.1 to 1 nM
- IC50 (SUM149; with 10 nM elastase): 0.01 to 0.1 nM
- ester cleavage in rat plasma [2]: slow ester cleavage and release of the aspartate moiety

SMILES: CCCNC(=O)Nc1cccc(S(=O)(=O)Nc2cccc([C@@H](CC(=O)O)NC(=O)Nc3ccc(NC(=O)NCCOCCOCCOCCC(=O)N[C@@H](CC(=O)OCCCCN(C)C)C(=O)N4CCC[C@H]4C(=O)N[C@H](C(=O)O[C@]4(CC)C(=O)OCc5c4cc4n(c5=O)Cc5c-4nc4ccccc4c5CC)C(C)C)cc3)c2)c1 [Compound C3, (3R)-3-[({4-[({(10S)-10-[(2S)-2-{[(2S)-1-{[(4S)-4,11-Diethyl-3,14-dioxo-3,4,12,14-tetrahydro-1H-pyrano[3′,4′:6,7]indolizino[1,2-b]quinolin-4-yl]oxy}-3-methyl-1-oxobutan-2-yl]carbamoyl}pyrrolidine-1-carbonyl]-2-methyl-8,12-dioxo-7,15,18,21-tetraoxa-2,11-diazatricosan-23-yl}carbamoyl)amino]phenyl}carbamoyl)amino]-3-[3-({3-[(propylcarbamoyl)amino]benzene-1-sulfonyl}amino)phenyl]propanoic acid]
- IC50 (786-O; compound alone (no elastase)): 10 to 100 nM
- IC50 (786-O; with 10 nM elastase): 0.1 to 1 nM
- IC50 (HT29; compound alone (no elastase)): 10 to 100 nM
- IC50 (HT29; with 10 nM elastase): 0.1 to 1 nM
- IC50 (NCI H292; compound alone (no elastase)): 10 to 100 nM
- IC50 (NCI H292; with 10 nM elastase): 0.1 to 1 nM
- release of free payload in buffer [1]: No release of free payload is detected
- IC50 (SUM149; compound alone (no elastase)): 1.1 to 10 nM
- IC50 (SUM149; with 10 nM elastase): 0.01 to 0.1 nM
- ester cleavage in rat plasma [2]: slow ester cleavage and release of the aspartate moiety
